Test: mn = molality of the nth substance listed, in mol/kg
Conditions: 74.66 kPa, Liquid, Vibrating tube method

CCCC[N+](CCCC)(C(C)CC)C(C)CC.[Br-] (stereo not given) [N-butyl-N,N-bis(1-methylpropyl)-1-butanaminium bromide] + O
mass density [kg/m3]
Conditions	m1 = 0.01181	m1 = 0.02026	m1 = 0.03102	m1 = 0.04017	m1 = 0.05043	m1 = 0.0598	m1 = 0.06968	m1 = 0.08191	m1 = 0.09038	m1 = 0.1036
298.15 K	997.635	998.067	998.623	999.106	999.638	1000.14	1000.66	1001.3	1001.76	1002.47
303.15 K	996.234	996.663	997.215	997.699	998.223	998.719	999.241	999.878	1000.33	1001.03
308.15 K	994.634	995.062	995.611	996.096	996.617	997.117	997.631	998.265	998.711	999.421

CCCC[N+](CCCC)(CCCC)CCCC.[Br-] [tetrabutylammonium bromide] + O
mass density [kg/m3]
Conditions	m1 = 0.01143	m1 = 0.02179	m1 = 0.02564	m1 = 0.03767	m1 = 0.0459	m1 = 0.05855	m1 = 0.0711	m1 = 0.07968	m1 = 0.09066	m1 = 0.1003
298.15 K	997.306	997.542	997.632	997.89	998.083	998.37	998.631	998.818	999.091	999.267
303.15 K	995.897	996.124	996.207	996.459	996.642	996.918	997.168	997.351	997.608	997.806
308.15 K	994.271	994.493	994.567	994.819	994.986	995.247	995.487	995.662	995.912	996.121

CCC(C)[N+](C(C)CC)(C(C)CC)C(C)CC.[Br-] (stereo not given) [tetra-sec-butyl ammonium bromide] + O
mass density [kg/m3]
Conditions	m1 = 0.0097	m1 = 0.01981	m1 = 0.03014	m1 = 0.04066	m1 = 0.04983	m1 = 0.0598	m1 = 0.07027	m1 = 0.07997	m1 = 0.08984	m1 = 0.1018
298.15 K	997.488	997.958	998.439	998.953	999.408	999.909	1000.44	1000.95	1001.45	1002.08
303.15 K	996.085	996.548	997.029	997.518	997.974	998.449	998.977	999.449	999.971	1000.56
308.15 K	994.477	994.931	995.392	995.891	996.309	996.799	997.293	997.778	998.299	998.923

CCCC[N+](CCCC)(CC(C)C)CC(C)C.[Br-] [N-butyl-N,N-bis(2-methylpropyl)-1-butanaminium bromide] + O
mass density [kg/m3]
Conditions	m1 = 0.01065	m1 = 0.01998	m1 = 0.0287	m1 = 0.03815	m1 = 0.04991	m1 = 0.05935	m1 = 0.06884	m1 = 0.08078	m1 = 0.0922	m1 = 0.1044
298.15 K	997.571	998.046	998.493	998.971	999.575	1000.05	1000.54	1001.16	1001.72	1002.35
303.15 K	996.173	996.647	997.094	997.573	998.175	998.652	999.131	999.751	1000.31	1000.94
308.15 K	994.575	995.047	995.492	995.975	996.571	997.048	997.529	998.152	998.702	999.327

CC(C)C[N+](CC(C)C)(CC(C)C)CC(C)C.[Br-] [tetra-iso-butyl ammonium bromide] + O
mass density [kg/m3]
Conditions	m1 = 0.01022	m1 = 0.02021	m1 = 0.02983	m1 = 0.03847	m1 = 0.04829	m1 = 0.05621	m1 = 0.06888	m1 = 0.07666	m1 = 0.08623	m1 = 0.1002
298.15 K	997.574	998.092	998.59	999.027	999.524	999.922	1000.56	1000.96	1001.43	1002.15
303.15 K	996.171	996.676	997.167	997.6	998.101	998.499	999.123	999.518	999.988	1000.7
308.15 K	994.553	995.043	995.531	995.96	996.462	996.855	997.478	997.85	998.324	999.035

Source: the NIST ThermoML archive (doi:10.1016/j.jct.2013.08.031)
